The target of one data set is T1, 5-HT2AR (Rattus norvegicus, UniProt P14842).
T1 construct: from tissue; host or cells: frontal cortex of male Sprague-Dawley rats
Nature of the data set: Radioligand binding at 5-HT2A on rat frontal cortex membranes. The note with it: for selectivity 5-HT2A/5-HT1A: Antilog [pKi (5-HT1AR) – pKi (5-HT2AR)]; for Ki: read-out: 5-HT2A pKi ± SEM (converted). As to the method: Male Sprague–Dawley rats were decapitated and their brains removed and placed on ice. The hippocampi (for the functional 5-HT1A receptor assay) or frontal cortexes (for the competitive 5-HT2A and 5-HT2C receptor assays) were dissected and homogenized with a glass homogenizer in 30 vol. ice-cold TED buffer (50 mMTris-HCl, 1 mM EDTA, 1 mM dithiotheritol, pH 7.4). Next, the homogenate was centrifuged at 21 000g for 30 min at 4 °C. The pellet was suspended in 30 vol TED buffer (pH 7.4) and incubated in a water bath for 10 min at 37 °C to remove endogenous ligands. The suspension was centrifuged again at 21 000g for 30 min at 4 °C. The pellet was resuspended in 30 vol TED buffer (pH 7.4) and the centrifugation step was repeated. The final pellet was suspended in 10 vol 50 mM Tris-HCl (pH 7.4) and stored at −80 °C until use.[47]
The 5-HT2A assay was performed according to a previously described protocol with some modifications.[48] […] Nonspecific binding was determined in the presence of 10 μM mianserin. For the 5-HT2C assay, the frontal cortex homogenates (250 μg protein/mL) were incubated in triplicate with 1 nM [^3H]mesulergine for 60 min at 36 °C in a 50 mM Tris-HCl (pH 7.4) buffer containing 0.1% ascorbate, 10 mM MgCl2, 10 μM pargyline, 100 nM spiperone, and increasing concentrations (10^–10–10^–5 M) of the compound tested. After incubation, the reaction mixture was deposited onto UniFilter-96 GF/B plates, with the aid of a FilterMate-96 Harvester. The filter plates were presoaked with 0.4% PEI for 1 h. Next, each filter well was washed with 1.75 mL of 50 mM Tris-HCl (pH 7.4) and left to dry on a heating block set to 50 °C for 2 h. Then, 45 μL of Microscint-20 scintillation fluid was added to each filter well and left to equilibrate overnight. The filter-bound radioactivity was counted in a MicroBeta^2 Microplate Counter. Curves were fitted with a one-site sigmoidal dose–response equation and pKi for each compound was calculated with the Cheng-Pursoff equation. Results were analyzed with one-way ANOVA followed by the Bonferroni’s posthoc test. The results are expressed as means ± SEM of three independent experiments.

Another data set deals with T2, human 5-HT6 (Homo sapiens, UniProt P50406).
T2 construct: expressed in transfected cells
T2 sequence (P50406 whole entry): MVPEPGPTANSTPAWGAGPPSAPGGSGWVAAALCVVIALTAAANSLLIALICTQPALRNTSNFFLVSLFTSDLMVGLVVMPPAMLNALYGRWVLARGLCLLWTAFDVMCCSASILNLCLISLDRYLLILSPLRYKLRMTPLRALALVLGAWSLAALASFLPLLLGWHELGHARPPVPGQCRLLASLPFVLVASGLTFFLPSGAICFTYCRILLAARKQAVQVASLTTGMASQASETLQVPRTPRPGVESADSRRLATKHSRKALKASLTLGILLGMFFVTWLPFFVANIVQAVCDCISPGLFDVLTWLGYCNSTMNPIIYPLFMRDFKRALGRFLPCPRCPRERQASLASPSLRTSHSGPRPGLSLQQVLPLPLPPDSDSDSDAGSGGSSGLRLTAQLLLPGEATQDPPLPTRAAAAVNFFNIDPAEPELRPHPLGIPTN
In words: Radioligand binding at 5-HT6 in transfected HEK293 cells. The note with it: for selectivity 5-HT6/5-HT1A: Antilog [pKi (5-HT1AR) – pKi (5-HT6R)]; for Ki: transfected HEK293 cells, [3H]-LSD, read-out: 5-HT6 pKi ± SEM (converted).

Another data set concerns Hep-G2 cells. Nature of the data set: Hep-G2 cell viability (MTT assay). The data set is classed as cell-based. To be noted: 72 h; for hepatic cell viability vs untreated control cells: 50 μM; for hepatic cell viability (toxicity): concentrations ≤10 μM. Here is the method:
HEK293 cells with stable expression of human 5-HT1A, 5-HT6, and 5-HT7b (prepared with the use of Lipofectamine 2000) were grown in Dulbecco’s Modified Eagle Medium (DMEM) containing 10% dialyzed fetal bovine serum (FBS) and 500 μg/mL G418 sulfate. Liver hepatocellular carcinoma Hep-G2 cells were cultured in DMEM enriched by 10% FBS, 2 mM L-glutamine, 100 IU/mL penicillin, and 50 μg/mL streptomycin (all from Sigma-Aldrich Corporation, a division of Merck KGaA, Darmstadt, Germany). Cell lines were maintained at 37 °C in a humidified atmosphere with 5% CO2. For membrane preparation, the cells were subcultured in 150 cm^2 flasks, grown to 90% confluence, washed twice with prewarmed to 37 °C phosphate buffered saline (PBS), and pelleted by centrifugation (200g) in PBS containing 0.1 mM EDTA and 1 mM dithiothreitol. Prior to membrane preparation, pellets were stored at −80 °C.
Liver hepatocellular carcinoma Hep-G2 cells were seeded in 96-well plates (1 × 10^4 cells/well) and maintained under continuous stimulation with increasing concentrations (nM−μM range) of the tested compounds. 200 mM ethanol and 5% Triton X-100 (Sigma-Aldrich Corporation) served as controls. The viability of cells was assessed by MTT assay as previously described.[66],[67] The absorbance was detected by a Victor3 plate reader (PerkinElmer Inc., Waltham, MA, USA) and represented by box and whiskers plot, as a measure of cell viability. Differences between values from treated and untreated cells were evaluated by two-ANOVA followed by Dunnett’s multiple comparison test (p < 0.05).
For orientation: Formazan colour is commonly taken as a measure of viable cells.

Another data set deals with male Albino Swiss mice. Nature of the data set: Hot plate test. Type of data set: in vivo, mouse. Here is the method: The experiments were performed on male Albino Swiss mice (20–25 g), where 4 animals were kept in a cage, in an environmentally controlled room (ambient temperature 22 ± 1 °C; relative humidity 50–60%; 12 h light/dark cycle, lights on at 8:00). Standard laboratory food (LSM, Agropol-Motycz, Poland) and filtered water were available ad libitum. All the behavioral experiments were carried out in accordance with the European Community Council Directive for Care and Use of Laboratory Animals (2010/63/EU) (2016), and approved by the Local Ethics Committee for Animal Experimentation. The tested compounds were administered intraperitoneally (i.p.), dissolved in DMSO (its final concentration of 0.1%), suspended in 0.5% Tween-80 (1–2 drops) and then diluted using an aqueous solution of 0.5% methylcellulose (tylose). All the compounds were given in a manner generally accepted in experimental pharmacology, in a volume of 10 mL/kg body weight. The animals were weighed immediately before injection. Each group consisted of 8 members. The control animals received an equivalent volume of the solvent at the respective time before the tests. […] Between injections, the mice were provided with stable living conditions and unrestricted access to food and water. All the experiments were conducted in the light phase between 09.00 a.m. and 05.00 p.m. For the hot plate test, the mice were placed on a hot plate (Ugo Basile Srl, Gemonio, Italy) maintained at a constant temperature of 55 °C with a cutoff time of 20 s. The baseline latency response (in seconds), induced by the thermal stimulus, with the mouse lifting either of the hind paws or jumping with all four feet off the hot plate, before administration of a compound was measured first. The animals were then administered with compounds and the post-treatment latency responses were determined at 30 min time intervals up to 180 min after drug injection. The antinociceptive effects of the compounds were expressed as a percentage of maximum possible effect (%MPE), which was calculated according to the following equation: [(T1 – T0)/(20 – T0)] × 100, where T0 and T1 are the predrug and post-drug latencies for hot plate response, respectively.[37],[38] The results were calculated using the one-way analysis of variance (ANOVA) followed by Bonferroni’s post hoc test. The results are presented as the means ± standard errors of mean (S.E.M.). The level of p < 0.05 was considered statistically significant. All the figures were prepared using the GraphPad Prism ver. 5.00 for Windows (GraphPad Software, San Diego, CA, USA), www.graphpad.com.
For orientation: In hot-plate and tail-flick tests a longer latency is read as antinociception.

Another data set deals with α1. Set-up: method as in PMID 30043643. The note with it: previous work; cited from earlier work.

T1 sequence (P14842 whole entry): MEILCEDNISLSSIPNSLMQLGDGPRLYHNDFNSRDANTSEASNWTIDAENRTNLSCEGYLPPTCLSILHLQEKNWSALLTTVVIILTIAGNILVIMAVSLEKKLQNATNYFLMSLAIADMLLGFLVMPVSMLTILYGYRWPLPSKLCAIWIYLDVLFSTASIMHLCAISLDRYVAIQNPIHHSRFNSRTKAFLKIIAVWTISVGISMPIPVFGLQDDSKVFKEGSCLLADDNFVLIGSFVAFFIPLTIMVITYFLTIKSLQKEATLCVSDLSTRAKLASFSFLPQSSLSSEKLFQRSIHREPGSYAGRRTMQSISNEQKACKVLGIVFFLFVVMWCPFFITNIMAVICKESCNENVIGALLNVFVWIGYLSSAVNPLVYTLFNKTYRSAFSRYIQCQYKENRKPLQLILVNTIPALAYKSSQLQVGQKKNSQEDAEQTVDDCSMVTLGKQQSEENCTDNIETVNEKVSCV

For `c1ccc(C2(c3ccccc3)OC[C@H](CNCCOc3ccccc3-c3ccncc3)O2)cc1` [(S)-1, N-[(2,2-Diphenyl-1,3-dioxolan-4-yl)methyl]-2-[2-(pyridin-4-yl)phenoxy]ethan-1-ammonium hydrogenoxalate], at 5-HT2AR, the “selectivity 5-HT2A/5-HT1A” value worked out at 85 and the Ki was 794 nM. Moreover, at human 5-HT6, the “selectivity 5-HT6/5-HT1A” value is reported as 347 and the Ki was 3240 nM. Moreover, in the data set on Hep-G2 cells, the “hepatic cell viability vs untreated control cells” value is “no effect” and the “hepatic cell viability (toxicity)” value was “very low toxicity”. Besides, the “reaction time to the thermal stimulus (hot plate)” value (from here on “reaction time”) in the data set on male Albino Swiss mice (mice, 5 mg/kg i.p.) is “a significant effect was only noted at 120 and 180 min”. Moreover, the “reaction time” value in the data set with male Albino Swiss mice (mice, 10 mg/kg i.p., 30, 90, 120 and 180 min) was “significantly increased”. Moreover, the “reaction time” value in the data set with male Albino Swiss mice (mice, 20 mg/kg i.p., 30, 90, 120 and 180 min) is “significantly increased the reaction time”. The “antinociceptive effect in hot plate with WAY-100635” value with male Albino Swiss mice (mice, (S)-1 10 mg/kg + WAY-100635 3 mg/kg, at 30 min) is “significantly reversed the antinociceptive effect”.
Consider `Cn1cncc1-c1ccccc1OCCNC[C@@H]1COC(c2ccccc2)(c2ccccc2)O1` [(R)-2, N-((2,2-Diphenyl-1,3-dioxolan-4-yl)methyl)-2-(2-(1-methyl-1H-imidazol-5-yl)phenoxy)ethan-1-ammonium hydrogenoxalate], for which, at 5-HT2AR, the “selectivity 5-HT2A/5-HT1A” value is on record as 74 and the Ki is 891 nM. For the same compound, at human 5-HT6, the “selectivity 5-HT6/5-HT1A” value is given as 417 and the Ki is 5010 nM. Besides, in the data set with Hep-G2 cells, the “hepatic cell viability vs untreated control cells” value is reported as “negatively impacted cell viability” and the “hepatic cell viability (toxicity)” value was “very low toxicity”.
Take `Cn1cncc1-c1ccccc1OCCNCC1COC(c2ccccc2)(c2ccccc2)O1` (racemic) [rac-2, N-((2,2-diphenyl-1,3-dioxolan-4-yl)methyl)-2-(2-(1-methyl-1H-imidazol-5-yl)phenoxy)ethan-1-ammonium hydrogenoxalate]: at 5-HT2AR, the “selectivity 5-HT2A/5-HT1A” value is on record as 56 and the Ki is 417 nM. In addition, on human 5-HT6, the “selectivity 5-HT6/5-HT1A” value was 676 and the Ki is 5010 nM. For the same compound, in the data set on α1, the “selectivity 5-HT1A/α1” value is 132.
For `Cn1cncc1-c1ccccc1OCCNC[C@H]1COC(c2ccccc2)(c2ccccc2)O1` [(S)-2, N-((2,2-Diphenyl-1,3-dioxolan-4-yl)methyl)-2-(2-(1-methyl-1H-imidazol-5-yl)phenoxy)ethan-1-ammonium hydrogenoxalate], at 5-HT2AR, the “selectivity 5-HT2A/5-HT1A” value is reported as 245 and the Ki was 1000 nM. For the same compound, at human 5-HT6, the “selectivity 5-HT6/5-HT1A” value was found to be 1349 and the Ki was 5500 nM. In the data set with Hep-G2 cells, the “hepatic cell viability vs untreated control cells” value was “negatively impacted cell viability”. In addition, in the data set on Hep-G2 cells (10 and 5 μM), the hepatic cell viability result is listed as “decreased cell viability”.
On to `c1ccc(C2(c3ccccc3)OCC(CNCCOc3ccccc3-c3ccncc3)O2)cc1` (racemic) [rac-1, N-[(2,2-diphenyl-1,3-dioxolan-4-yl)methyl]-2-[2-(pyridin-4-yl)phenoxy]ethan-1-ammonium hydrogenoxalate], for which, at 5-HT2AR, the “selectivity 5-HT2A/5-HT1A” value amounted to 123 and the Ki is 1120 nM. On human 5-HT6, the “selectivity 5-HT6/5-HT1A” value was found to be 832 and the Ki is 7590 nM. Further, the “MPE values in the hot plate test” value in the data set on male Albino Swiss mice (mice, 5, 10 and 20 mg/kg i.p., 30-180 min) is “did not reveal any significant change in the MPE values”. The “selectivity 5-HT1A/α1” value in the data set on α1 is 135.
For `c1ccc(C2(c3ccccc3)OC[C@@H](CNCCOc3ccccc3-c3ccncc3)O2)cc1` [(R)-1, N-[(2,2-Diphenyl-1,3-dioxolan-4-yl)methyl]-2-[2-(pyridin-4-yl)phenoxy]ethan-1-ammonium hydrogenoxalate], on 5-HT2AR, the “selectivity 5-HT2A/5-HT1A” value came to 355 and the Ki is 1580 nM. At human 5-HT6, the “selectivity 5-HT6/5-HT1A” value is 955 and the Ki is 4270 nM. Further, in the data set on Hep-G2 cells, the “hepatic cell viability vs untreated control cells” value is “negatively impacted cell viability” and the “hepatic cell viability (toxicity)” value is recorded as “very low toxicity”.

(Values after article PMC8016166, “Identification of a Potent and Selective 5-HT1A Receptor Agonist with In Vitro and In Vivo Antinociceptive Activity” (ACS Chemical Neuroscience, 2020).)
